Data: patent US20230247992A1, “ARTHROPOD CONTROL COMPOSITION” (Firmenich SA, priority 2020, published 2023)
Like-named read-outs stand apart in the source and are kept apart here.

Legend:
Type in all cases: in vivo
Aedes aegypti [1] = experiment: in vitro Warm Body assay, substance introduced in the cage air by forced evaporation (spatial repellence); conditions: for landings in 2 minutes: dose of 0.17 µg/L of air
Method: (§1) The controlling effect, repellence & spatial repellence, according to the present invention is determined by testing the Warm Body assay against the yellow fever mosquito, Aedes aegypti Rockefeller strain. […] Observations of controlling efficacy were made on host-seeking females of uniform age, 5 to 10 days old selected as mentioned in the publication mentioned hereinabove. Tested hungry females had access to 10% sugar solution but were not blood-fed. Further information is provided in the accompanying examples.
(§2) The published protocol has been adapted in not manually counting the landing mosquitoes but automatically using an automatic counting software, the switch from Anopheles gambiae to A. aegypti led to a decrease of mosquitoes’ number placed in the tested cage due to the size difference (i.e. 30 mosquitoes instead of 50) and to an increase of lighting as A. aegypti is a diurnal mosquitoes (i.e. 150 lux instead of 4 lux). Further information is provided in the accompanying examples.,
(§3) The controlling effect of the compositions according to the present invention was assessed using an adapted Warm Body assay as defined in Kröber T, Kessler S, Frei J, Bourquin M, Guerin PM. 2010. An in vitro assay for testing mosquito controlling compounds employing a warm body and carbon dioxide as a behavioral activator. J Am Mosq Control Assoc. 26:381-386. In this in-vitro assay the number of mosquito landing on a warm body, simulating an attractive host treated with the tested stimuli, was measured in order to assess the repellence effect.
as §2, with “to Aedes” for “to A.”, “lux).” for “lux). Further information is provided in the accompanying examples.,”
(§4) In addition, since the inventors were interested by assessing spatial repellence added or not to a deterrent effect, the substance was applied using two different technics. Whether, as in Kröber et al. (2010), both deterrent and repellent effect were investigated (i.e. similar effect than most body care applications such as lotion) and the substances was applied on a sandblasted glass Petri dish placed on top of the warm body. Whether only the spatial repellence was investigated (i.e. similar effect than most home care applications such as liquid electric dispenser) and the substance was introduced in the cage space thanks to a forced evaporation system as described in Chappuis C J-F, Niclass Y, Vuilleumier C, Starkenmann C. 2015. Quantitative Headspace Analysis of Selected Odorants from Latrines in Africa and India. Environ. Sci. Technol. 49:6134-6140.
(§5) As stated in Kröber et al. (2010), selected 10-12 days old hungry females, that had ad libitum access to 10% sugar solution but were not blood-fed, were selected for the assay.
The forced evaporation system allows to fill the volume of the cage with stimuli tested, (2-methyl-4-oxo-3-prop-2-ynylcyclopent-2-en-1-yl) 2,2-dimethyl-3-(2-methylprop-1-enyl)cyclopropane-1-carboxylate (prallethrin) and N,N-diethyl-3-methylbenzamide (DEET) being used as benchmarks. In order to limit potential dead volumes in the cage, five flushes of the cage were made before starting the 2 minutes test during which the number of mosquito landings was counted.

Aedes aegypti [2] = experiment: in vitro Warm Body assay, substance applied on glass Petri dish on top of the warm body (deterrence and repellence)
Method: as §1, §2, §3
as §2, with “to Aedes” for “to A.”, “lux).” for “lux). Further information is provided in the accompanying examples.,”
as §4, §5
On the sandblasted glass Petri dish covering the warm body (28.3 cm^2), 100 µL of the substances diluted at different concentrations in ethanol was applied. The number of mosquito landing on the warm body was counted for each stimuli, N,N-diethyl-3-methylbenzamide (DEET) and ethyl 3-[acetyl(butyl)amino]propanoate (IR3535) being used as benchmarks and pure ethanol as control.

Ixodes ricinus = experiment: whole plant or invertebrate; conditions: for pest or weed control at 1 µg/cm2, 1 µg/cm2 / pest or weed control at 5 µg/cm2, 5 µg/cm2 / pest or weed control at 25 µg/cm2, 25 µg/cm2 / pest or weed control at 0.04 µg/cm2, 0.04 µg/cm2: Ixodes ricinus, read-out: mean percentage of ticks affected; for pest or weed control at 0.04 µg/cm2, 0.04 µg/cm2: 0.04 µg/cm^2, diluted in ethanol
[3] = 0.0017 µg/L air, without substance 54.7±3.2
[4] = 0.017 µg/L air, without substance 54.7±3.2
[5] = 0.17 µg/L air, without substance 54.7±3.2
[6] = 1.7 µg/L air, without substance 54.7±3.2
[7] = 17 µg/L air, without substance 54.7±3.2
[8] = 0.04% in ethanol, ethanol control 59.3±6.9 landings
[9] = 1% in ethanol, ethanol control 59.3±6.9 landings
[10] = […] in ethanol, ethanol control 59.3±6.9 landings
[11] = 1 µg/cm^2, diluted in ethanol, ethanol control 1.0±1.2%
[12] = 5 µg/cm^2, diluted in ethanol, ethanol control 1.0±1.2%
[13] = 25 µg/cm^2, diluted in ethanol, ethanol control 1.0±1.2%
[14] = 0.0017 µg/L air, without substance 56.0±3.6
[15] = 0.017 µg/L air, without substance 56.0±3.6
[16] = 0.17 µg/L air, without substance 56.0±3.6
[17] = 1.7 µg/L air, without substance 56.0±3.6
[18] = 17 µg/L air, without substance 56.0±3.6
[19] = 0.04% in ethanol, ethanol control 67.1±9.1 landings
[20] = 1% in ethanol, ethanol control 67.1±9.1 landings
[21] = […] in ethanol, ethanol control 67.1±9.1 landings
[22] = 0.04% in ethanol, ethanol control 67.0±8.8 landings
[23] = 1% in ethanol, ethanol control 67.0±8.8 landings
[24] = […] in ethanol, ethanol control 67.0±8.8 landings
[25] = 1 µg/cm^2, diluted in ethanol, ethanol control 0.6±0.5%
[26] = 25 µg/cm^2, diluted in ethanol, ethanol control 0.6±0.5%

| Structure (SMILES) | number of mosquitoes landing within 2 minutes on the warm body, air in the cage saturated with stimulus (Aedes aegypti [1]; [3]) | number of mosquitoes landing within 2 minutes on the warm body, air in the cage saturated with stimulus (Aedes aegypti [1]; [4]) | number of mosquitoes landing within 2 minutes on the warm body, air in the cage saturated with stimulus (Aedes aegypti [1]; [5]) | number of mosquitoes landing within 2 minutes on the warm body, air in the cage saturated with stimulus (Aedes aegypti [1]; [6]) | number of mosquitoes landing within 2 minutes on the warm body, air in the cage saturated with stimulus (Aedes aegypti [1]; [7]) | number of mosquitoes landing within 2 minutes on the warm body (Aedes aegypti [2]; [8]) | number of mosquitoes landing within 2 minutes on the warm body (Aedes aegypti [2]; [9]) | number of mosquitoes landing within 2 minutes on the warm body (Aedes aegypti [2]; [10]) | pest or weed control at 1 µg/cm2, 1 µg/cm2 (Ixodes ricinus) [%] | pest or weed control at 5 µg/cm2, 5 µg/cm2 (Ixodes ricinus) [%] | pest or weed control at 25 µg/cm2, 25 µg/cm2 (Ixodes ricinus) [%] | pest or weed control at 1 µg/cm2, 1 µg/cm2 (Ixodes ricinus; [11]) [%] | pest or weed control at 5 µg/cm2, 5 µg/cm2 (Ixodes ricinus; [12]) [%] | pest or weed control at 25 µg/cm2, 25 µg/cm2 (Ixodes ricinus; [13]) [%] | number of mosquitoes landing within 2 minutes on the warm body (Aedes aegypti [2]; [19]) | number of mosquitoes landing within 2 minutes on the warm body (Aedes aegypti [2]; [20]) | number of mosquitoes landing within 2 minutes on the warm body (Aedes aegypti [2]; [21]) | number of mosquitoes landing within 2 minutes on the warm body (Aedes aegypti [2]; [22]) | number of mosquitoes landing within 2 minutes on the warm body (Aedes aegypti [2]; [23]) | number of mosquitoes landing within 2 minutes on the warm body (Aedes aegypti [2]; [24]) | also measured |
| --- | --- | --- | --- | --- | --- | --- | --- | --- | --- | --- | --- | --- | --- | --- | --- | --- | --- | --- | --- | --- | --- |
| C=C(C)[C@@H]1CC=C(C)C(=O)C1 [(5R)-2-methyl-5-prop-1-en-2-ylcyclohex-2-en-1-one] | 20.0 | 27.0 | 2.0 | 2.0 | 2.0 | 16.0 | 3.0 | 24.0 | 50 | 17 | 57 |  |  |  |  |  |  |  |  |  |  |
| CCCCCC1CCC(=O)O1 (centres unmarked) [5-pentyloxolan-2-one] | 14.7 | 23.0 | 15.3 | 7.7 | 2.0 | 16.0 | 1.0 | 76.0 |  |  |  | 31 | 83 | 100 |  |  |  |  |  |  | tick response compared with the benchmark IR3535 (Ixodes ricinus; concentrations tested): response similar to the benchmark IR3535 |
| CC(C=O)Cc1ccc(C(C)C)cc1 (centres unmarked) [2-methyl-3-(4-propan-2-ylphenyl)propanal] | 26.3 | 21.3 | 7.8 | 5.0 | 7.5 | 20.0 | 1.0 | 49.0 |  |  |  | 7 | 46 | 85 |  |  |  |  |  |  |  |
| C=Cc1ccc(O)c(OC)c1 [4-ethenyl-2-methoxyphenol] |  |  |  |  |  |  |  |  | 17 | 46 | 100 |  |  |  | 5.0 | 0.0 | 36.0 |  |  |  | number of mosquitoes landing within 2 minutes on the warm body, air in the cage saturated with stimulus (Aedes aegypti [1]; [14]): 11.0; number of mosquitoes landing within 2 minutes on the warm body, air in the cage saturated with stimulus (Aedes aegypti [1]; [15]): 15.0; number of mosquitoes landing within 2 minutes on the warm body, air in the cage saturated with stimulus (Aedes aegypti [1]; [16]): 0.0; number of mosquitoes landing within 2 minutes on the warm body, air in the cage saturated with stimulus (Aedes aegypti [1]; [17]): 3.0; number of mosquitoes landing within 2 minutes on the warm body, air in the cage saturated with stimulus (Aedes aegypti [1]; [18]): 2.0; landings in 2 minutes (Aedes aegypti [1]): less than five; ticks prevented from climbing up in search of a feeding site (Ixodes ricinus; highest concentration of 1% (25 µg/cm^2)): all tested ticks |
| C/C=C/C(=O)C1C(C)=CCCC1(C)C (centres unmarked) [(E)-1-(2,6,6-trimethylcyclohex-2-en-1-yl)but-2-en-1-one] |  |  |  |  |  |  |  |  | 13 | 6 | 83 |  |  |  | 34.0 | 9.0 | 70.0 |  |  |  | number of mosquitoes landing within 2 minutes on the warm body, air in the cage saturated with stimulus (Aedes aegypti [1]; [14]): 6.0; number of mosquitoes landing within 2 minutes on the warm body, air in the cage saturated with stimulus (Aedes aegypti [1]; [15]): 11.0; number of mosquitoes landing within 2 minutes on the warm body, air in the cage saturated with stimulus (Aedes aegypti [1]; [16]): 4.0; number of mosquitoes landing within 2 minutes on the warm body, air in the cage saturated with stimulus (Aedes aegypti [1]; [17]): 4.0; number of mosquitoes landing within 2 minutes on the warm body, air in the cage saturated with stimulus (Aedes aegypti [1]; [18]): 1.0; repulsion (Aedes aegypti [1]; at all five tested concentrations): more than 80%; landings in 2 minutes (Aedes aegypti [1]): less than five |
| O=C1CCC2CCCCC2O1 (centres unmarked) [3,4,4a,5,6,7,8,8a-octahydrochromen-2-one] |  |  |  |  |  |  |  |  |  |  |  |  |  |  |  |  |  | 7.0 | 0.0 | 45.0 | pest or weed control at 0.04 µg/cm2, 0.04 µg/cm2 (Ixodes ricinus; ethanol control 0.6±0.5%): 33%; pest or weed control at 1 µg/cm2, 1 µg/cm2 (Ixodes ricinus; [25]): 17%; pest or weed control at 25 µg/cm2, 25 µg/cm2 (Ixodes ricinus; [26]): 92% |
| C/C=C/c1ccc(O)c(OC)c1 [2-methoxy-4-[(E)-prop-1-enyl]phenol] |  |  |  |  |  |  |  |  | 8 | 67 | 83 |  |  |  |  |  |  | 14.0 | 0.0 | 57.0 | number of mosquitoes landing within 2 minutes on the warm body, air in the cage saturated with stimulus (Aedes aegypti [1]; 0.017 µg/L air, without substance 54.1±4.9): 12.0; number of mosquitoes landing within 2 minutes on the warm body, air in the cage saturated with stimulus (Aedes aegypti [1]; 0.17 µg/L air, without substance 54.1±4.9): 4.0; number of mosquitoes landing within 2 minutes on the warm body, air in the cage saturated with stimulus (Aedes aegypti [1]; 1.7 µg/L air, without substance 54.1±4.9): 11.0; landings per minute (Aedes aegypti [2]; concentration of 0.04%): ~ 10 landings per minute |
| CCCCN(CCC(=O)OCC)C(C)=O [ethyl 3-[acetyl(butyl)amino]propanoate, reference compound] |  |  |  |  |  | 20.7 | 7.7 | 70.0 |  |  |  | 33 | 67 | 91 | 20.7 | 7.7 | 70.0 | 20.7 | 7.7 | 70.0 | mean percentage of ticks affected (Ixodes ricinus; [25]): 33%; mean percentage of ticks affected (Ixodes ricinus; 1 µg/cm^2, diluted in ethanol, ethanol control 4.3±2.1%): 33%; mean percentage of ticks affected (Ixodes ricinus; 5 µg/cm^2, diluted in ethanol, ethanol control 0.6±0.5%): 67%; mean percentage of ticks affected (Ixodes ricinus; 5 µg/cm^2, diluted in ethanol, ethanol control 4.3±2.1%): 67%; mean percentage of ticks affected (Ixodes ricinus; [26]): 91%; mean percentage of ticks affected (Ixodes ricinus; 25 µg/cm^2, diluted in ethanol, ethanol control 4.3±2.1%): 91%; pest or weed control at 0.04 µg/cm2, 0.04 µg/cm2 (Ixodes ricinus; ethanol control 0.6±0.5%): 13% |
